Measurements as given in patent publication US20160058705A1 (priority 2014, published 2016).
Entries after “also recorded” stand apart in the source; their conditions may differ.

Columns and labels:
[1] = system: TAC-induced cardiac hypertrophy; assay: Histology (Masson's trichrome) of heart sections two weeks post injury; format: in vivo, mouse; details: TAC mice
Description: (§1) All procedures involving animal use, housing, and surgeries were approved by the Stanford Institutional Animal Care and Use Committee (IACUC). Animal care and interventions were provided in accordance with the Laboratory Animal Welfare Act.
(§2) For constriction of transverse thoracic aorta (DeAlmeida et al. (2010) J. Vis. Exp. April 21(38) pii:172), mice were anesthetized using an isoflurane inhalational chamber, followed by endotracheal intubation using a 22-gauge angiocatheter (Becton, Dickinson Inc., Sandy, Utah) connected to a small animal ventilator (Harvard Apparatus, Holliston, Mass.). A left thoracotomy was performed via the fourth intercostal space, the transverse aorta was identified, and a 6.0 silk suture was placed between the innominate and left carotid arteries. The suture was tightened around a 271/2 gauge blunt needle, placed parallel to the aorta (FIG. 1B) to induce a constriction of ˜0.4 mm in diameter. In sham control mice, an identical procedure was conducted, except for the constriction of the aorta.
Histological analysis was performed following standard protocols for paraffin embedding. Mounted heart samples were stained for Masson's trichrome (TC, to label muscle fibers in red, collagen in blue, cytoplasm in pink, and nuclei in dark brown). A minimum of 4 sections per sample were used.

[2] = system: TAC-induced cardiac hypertrophy; assay: Echocardiography in mouse model of TAC (pressure overload-induced cardiac hypertrophy); format: in vivo; details: TAC mice, 300 μg/kg IP at days 1 and 7; compared with TAC controls
Description: as §1, §2
In vivo heart function was evaluated by echocardiography at 1 day prior to surgery (baseline) and on days 1, 7, and 14 post-surgery (FIG. 1A). […] Fractional shortening (FS), LV internal diameter at end diastole (LVIDd) and systole (LVIDs), and posterior LV wall thickness at end diastole (LVPWd) were measured. […]

pyroglutamyl apelin-13 [[Pyr1]-apelin-13]
size of LV and extent of cardiac fibrosis (trichrome histology) [1]: remarkable inhibition of the LV growth
hypertrophic response / cardiac remodeling and dysfunction due to pressure overload [2]: more modest effect; also recorded: slight inhibition of cardiac remodeling and increase in FS
